The conditions of data set [1]: stated in Example 1 without method; cited from earlier work.
A short description of data set [2]: Solubility in water by UV method. The settings on record: thermodynamic from solid.
Data set [3] can be described thus: physchem. The settings on record: water, thermodynamic from solid.

Structures are written as SMILES. Values after ≈ are worked out from the molar mass of the structure shown. Structures can show the parent of a compound that is named as a salt.

As for `COc1cccc2c1C(=O)c1c(O)c3c(c(O)c1C2=O)C[C@@](O)(C(=O)CO)C[C@@H]3O[C@H]1C[C@H](N)[C@H](O)[C@H](C)O1` [doxorubicin hydrochloride], the “soluble in water in an amount of” value in data set [1] is reported as “more than 25 mg/ml”.
For `COc1cccc2c1C(=O)c1c(O)c3c(c(O)c1C2=O)C[C@@](O)(C(=O)CO)C[C@@H]3O[C@H]1C[C@H](N)[C@H](O)[C@H](C)O1` [doxorubicin in amine form, doxorubicin], the solubility (usually the dissolved amount per volume that the medium holds) in data set [2] came out at 15 µg/mL (≈ 27.6 µM).
As to `O=C1c2c(O)ccc(O)c2C(=O)c2c(NCCNCCO)ccc(NCCNCCO)c21` [mitoxantrone in amine form, mitoxantrone], the solubility in data set [3] worked out at 30 µg/mL (≈ 67.5 µM).
Still for that read-out and setting: next, `CC[C@@]1(O)C(=O)OCc2c1cc1n(c2=O)Cc2cc3c(CN(C)C)c(O)ccc3nc2-1` [topotecan in amine form, topotecan]: 90 µg/mL (≈ 214 µM).

The record behind these values is patent US8765173B2, “Drug delivery system for administration of a water soluble, cationic and amphiphilic pharmaceutically active substance” (Ardenia Investments, Ltd., priority 2007, dated 2014).
